# Values quoted from earlier work as cited in patent publication US20160101140A1, “Method for Processing Rosaceous Kernels” (priority 2014, published 2016).
# System: tumors
# Conditions: finding of Sugiura
smiles,measurement,setting,value
"N#C[C@H](O[C@@H]1O[C@H](CO[C@@H]2O[C@H](CO)[C@@H](O)[C@H](O)[C@H]2O)[C@@H](O)[C@H](O)[C@H]1O)c1ccccc1 [Vit B17, amygdalin]",occurrence of a cancer,,can inhibit an occurrence of a cancer
same,pain caused by the cancer,,can lessen the pain caused by the cancer
same,anti-cancer activity,background section,had anti-cancer activity
same,inhibition of secondary tumors,mice,inhibited secondary tumors in mice
